Data published in patent US20020086835A1, “Use of adenosine deaminase inhibitors to treat systemic inflammatory response syndrome” (priority 2000, published 2002).
“And” between values parts separate entries of the source, which are not always exact repeats. Equal entries are not always repeated.

Tests used:
[1] = human blood; cited from earlier work
TNF-α [2] = assay: Serum TNF-α by ELISA in rats with chronic peritoneal sepsis (200 mg/kg cecal slurry ip); assay type: in vivo, rat; conditions: septic rats; for Effect on serum TNF-α response to sepsis at 4 hours / Effect on serum TNF-α response to sepsis at 24 hours: versus saline-treated septic group
Method: (§1) Studies were conducted to determine if manipulation of adenosine-mediated events would result in alterations in the TNF-α response in this model. At the time of sepsis induction, rats were treated in one of four ways. One group received only 0.9% normal saline as a vehicle control (No Rx; n=6). […] The third group received the adenosine deaminase inhibitor, erythro-9-(2-hydroxy-3-nonyl)adenine (EHNA; 1 μmole/kg+1 μmole/kg/hr; iv; n=3). A fourth group received the adenosine receptor antagonist 8-sulfophenyltheophylline (SPT; 400 μg/kg/8 hours; n=5).
(§2) Sepsis was induced under pentobarbital anesthesia (50 mg/kg) in each rat by intraperitoneal (ip) injection of 200 mg/kg rat cecal contents mixed as a slurry in 5% dextrose in water (D5W). […] Non-septic controls received an equivalent volume ip injection of D5W. Polyethylene catheters (Intramedic PE-50, Baxter) were inserted into the right internal jugular vein and right carotid artery. The jugular catheter was used for venous access (drug infusions; volume replacement, etc). The carotid catheter was used to obtain arterial blood samples, and to monitor arterial blood pressure and heart rate. The catheters were secured in their respective vessels, tunneled subcutaneously to exit in the interscapular region, and filled with heparinized saline (50 units/ml 0.9% normal saline). Incisions were closed in layers using 3-0 silk. Rats were allowed to recover from anesthetic and provided food and water ad libitum,
Serum and tissue tumor necrosis factor-α (TNF-α) concentrations were determined by enzyme-linked immunosorbant assay. Samples of serum, liver, and spleen were collected, rapidly weighed, and frozen in liquid nitrogen. On the day of assay, tissues are added to labeled tubes containing lysis buffer (volume=10 ml/gram wt. with 1:10 dilution) and kept on ice. The lysis buffer is 20 mM Tris (pH 7.4) containing […] phenylmethylsulfonylflouride (PMSF), […] leupeptin, 0.7 g/ml pepstatin, and 2.0 g/ml aprotinin to inhibit proteases. Samples were immediately homogenized using five 3 see bursts, washing grinding pistol (3×) between samples with phosphate buffered saline. Samples are then centrifuged for 20 min at 2200 RPM, 4° C. The supernatant was removed and used for TNF-α measurements. Briefly, each microplate well contained 50 μl of assay diluent. To each well, 50 μl of standard, control, or serum/homogenate supernatant sample were added and mixed on an orbital plate shaker. Plates were incubated at room temperature for 2 hours. Each well was then aspirated and washed with wash buffer 4 times. After final aspiration of wash buffer, 100 μl of rat TNF-α conjugate was added to each well. Wells were then covered and incubated for 2 hours at room temperature. At the end of the incubation, the aspiration/wash procedure was repeated 4 times, after which 100 μl of stabilized chromogen solution was added to each well. Next, plates were incubated for 45 minutes at room temperature in a dark area. After this final incubation period, 100 μl stopping solution was added to each well. Optical density of each well at […] was determined within 30 minutes using a Biotek Instruments EL312e microtiter plate reader. Concentrations of TNF-α were calculated from the standard curves.
At the time of sepsis induction, rats were treated in one of three ways. One group received only 0.9% normal saline as a vehicle control (VEH, n=6, where n is the number of rats). […] A third group received the adenosine receptor antagonist, 8-sulfophenyltheo-phylline (SPT; 400 μg/kg/8 h; n=5). Serum TNF-α (pg/ml) was determined at 4 and 24 hours after sepsis induction by ELISA.
Male SD rats (350-400 g) were made septic by IP introduction of a 200 mg/kg cecal slurry. […] TNF-α (pg/ml) was determined at 4 and 24 hours after sepsis induction by ELISA.

adenosine deaminase [3] = target: T1, adenosine deaminase (Homo sapiens, UniProt P00813); conditions: potency of inhibition of the enzyme
T1 sequence (P00813 1-363): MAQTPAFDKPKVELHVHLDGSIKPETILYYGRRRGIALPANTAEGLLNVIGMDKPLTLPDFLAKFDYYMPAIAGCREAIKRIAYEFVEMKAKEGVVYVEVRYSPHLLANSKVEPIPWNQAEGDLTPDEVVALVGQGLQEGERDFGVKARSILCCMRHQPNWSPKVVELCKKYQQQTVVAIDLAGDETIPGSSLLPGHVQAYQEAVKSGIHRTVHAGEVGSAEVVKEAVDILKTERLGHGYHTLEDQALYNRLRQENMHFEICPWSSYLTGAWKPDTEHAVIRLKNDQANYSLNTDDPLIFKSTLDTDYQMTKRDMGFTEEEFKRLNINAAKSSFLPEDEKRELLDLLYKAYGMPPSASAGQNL

adenosine deaminase [4] = target: T1, adenosine deaminase; conditions: read-out: Inhibitory constant for adenosine deaminase; cited from earlier work
adenosine deaminase [5] = conditions: in perfusion medium, in the presence of 5′-amino-5′-deoxyadenosine; cited from earlier work
sTNFRII or p75 = assay: Circulating soluble TNF receptor II in fluid-resuscitated sepsis-induced SIRS; assay type: in vivo, rat; conditions: 24 hours after SIRS induction; 1 mg/kg pentostatin 2 hours after induction
Method: (§3) SIRS was induced secondary to sepsis by ip introduction of […] cecal matter in 5 ml/kg D5W.
(§4) It is increasingly apparent that feedback between pro and anti-inflammatory processes is critically important to the clinical outcome from SIRS, as taught by Bone (Bone, 1996). The balance between complementary pro-and anti-inflammatory molecules is typified by TNF α and its soluble receptors, sTNF types I and II. The ability of ADA inhibition to restore balance to these complimentary molecules in the SIRS responses was tested with a more clinically relevant addition of fluid resuscitated sepsis. […] Further evidence of a complex, modulatory mode of action is indicated by IL-10 concentrations in the liver and spleen.

sTNFRI or p55 = assay: Circulating soluble TNF receptor I in fluid-resuscitated sepsis-induced SIRS; assay type: in vivo, rat; conditions: 24 hours after SIRS induction; 1 mg/kg pentostatin 2 hours after induction
Method: as §3, §4

TNF-α, IL-1 beta, IL-10 = assay: Cytokine concentrations after ip E coli endotoxin (LPS), pentostatin dose response (FIG. 16); assay type: in vivo, rat; conditions: response to 2 mg/kg LPS (endotoxin), 2 hours after ip injection
Excerpt: Lower doses than this were unable to consistently suppress TNF-α and IL-1 beta with concommittant stimulation of the anti-inflammatory cytokine, IL-10.

septic rats [6] = assay: Capillary leakage: examination of peritoneal cavity and bowel of septic rats; assay type: in vivo, rat
IL-10 = IL-10 in serum, liver and spleen in fluid-resuscitated SIRS; assay type: in vivo, rat; conditions: pentostatin treatment
Method: as §3, §4

IL-6 = assay: Serum IL-6 in fluid-resuscitated sepsis-induced SIRS; assay type: in vivo, rat; conditions: 24 hours after SIRS induction, 1 mg/kg pentostatin 2 hours after induction
Method: as §3, §4

TNF-α [7] = assay: Serum TNF-α in fluid-resuscitated sepsis-induced SIRS; assay type: in vivo, rat; conditions: 24 hours after SIRS induction, 1 mg/kg pentostatin 2 hours after induction
Method: as §3, §4
Serum and tissue tumor necrosis factor-α (TNF-α) concentrations were determined by enzyme-linked immunosorbant assay. Samples of serum, liver, and spleen were collected, rapidly weighed, and frozen in liquid nitrogen. On the day of assay, tissues are added to labeled tubes containing lysis buffer (volume=10 ml/gram wt. with 1:10 dilution) and kept on ice. […] Optical density of each well at […] was determined within 30 minutes using a Biotek Instruments EL312e microtiter plate reader. Concentrations of TNF-α were calculated from the standard curves.

SIRS rats = assay: Survival up to 6 days after SIRS induction secondary to sepsis (FIG. 15); assay type: in vivo, rat; conditions: 1 mg/kg
Method: All rats received 50 ml/kg 0.9% normal saline iv 2 hours after SIRS induction.
Inhibition of up to 100% can be maintained for no more than 3 consecutive days, after which ADA activity should be allowed to return to at least 50% of baseline values before another dose of the inhibitor can be given. […] One-two hours after administration of a starting dose of the inhibitor, adenosine deaminase activity can be measured in various bodily fluids, tissues, dialysates, or cells by spectrophotometric methods according to the method of Vielh and Castellazzi, or other appropriate measurement that provides information regarding ADA enzyme activity. Measurement of adenosine deaminase activity can also be used to monitor the return of ADA activity after therapeutic inhibition for the treatment or prevention of SIRS.

septic rats [8] = assay: Survival of septic rats to day 3; assay type: in vivo, rat; conditions: pentostatin 5 mg/kg/12 h; 8-SPT 400 μg/kg/8 h; 3 days post-sepsis
Method: as §1
as §2, with “The catheters were secured in their respective vessels, tunneled subcutaneously to exit in the interscapular region, and filled with heparinized saline (50 units/ml 0.9% normal saline). Incisions were closed in layers using 3-0 silk. Rats were allowed to recover from anesthetic and provided food and water ad libitum,” left out
(§5) At the time of sepsis induction, rats were treated in one of three ways. […] Serum TNF-α (pg/ml) was determined at 4 and 24 hours after sepsis induction by ELISA.

septic rats [9] = assay: Blood pressure and heart rate in septic rats; conditions: chronic treatment
Method: as §1
as §2, with “The catheters were secured in their respective vessels, tunneled subcutaneously to exit in the interscapular region, and filled with heparinized saline (50 units/ml 0.9% normal saline). Incisions were closed in layers using 3-0 silk. Rats were allowed to recover from anesthetic and provided food and water ad libitum,” left out
as §5

[10] = system: lipid peroxidation (TBARS); assay: Thiobarbituric acid reactive substances (TBARS) in jejunum of septic rats; conditions: 24 hours, versus saline (No Rx)

For `Nc1ncnc2c1ncn2[C@@H]1O[C@H](CO)[C@@H](O)[C@H]1O` [Adenosine], the Half life [1] is given as < 1 s.

With `CCCCCCC(C(C)O)n1cnc2c(N)ncnc21` (stereo not drawn) [EHNA, erythro-9-(2-hydroxy-3-nonyl)adenine] the “Effect on serum TNF-α response to sepsis at 4 hours” value (TNF-α [2]; 4 hours) was “attenuation of this response”, the “Effect on serum TNF-α response to sepsis at 24 hours” value (TNF-α [2]; 24 hours) was “attenuation of this response” and the “Activity relative to pentostatin (times less active)” value (adenosine deaminase [3]) was “one thousand”. The Ki (adenosine deaminase [4]) was 1 nM and the “Increase of adenosine release” value (adenosine deaminase [5]) was 15 fold.

With `OC[C@H]1O[C@@H](n2cnc3c2NC=NC[C@H]3O)C[C@@H]1O` [pentostatin, (R)-3-(2-deoxy-beta-D-erythropentofuranosyl)-3,6,7,8-tetrahydro-imidazo[4,5-d]-[1,3] diazepin-8-ol] the “Effect on serum TNF-α response to sepsis at 4 hours” value (TNF-α [2]; 4 hours) was “attenuation of this response”, the “Effect on serum TNF-α response to sepsis at 24 hours” value (TNF-α [2]; 24 hours) was “attenuation of this response” and the “Serum TNF-α at 4 hours after sepsis induction” value (TNF-α [2]; treated at time of sepsis induction, 4 hours) was 592 ± 62 pg/mL. For the same molecule, the “Serum TNF-α at 24 hours after sepsis induction” value (TNF-α [2]; treated at time of sepsis induction, 24 hours) was 671 ± 175 pg/mL, the “Circulating sTNFRII (p75)” value (sTNFRII or p75) was 16525 ± 1226 pg/mL and the “Circulating sTNFRI (p55)” value (sTNFRI or p55) was 4624 ± 404 pg/mL. The “Dose with maximal effect on modulating cytokine concentrations” value (TNF-α, IL-1 beta, IL-10) was 1 mg/kg, the Capillary leakage (septic rats [6]) was “amelioration of capillary leakage” and the Small bowel hemorrhage (septic rats [6]) was “little to no evidence of small bowel hemorrhage”. The “Volume of fluid in the peritoneal cavity” value (septic rats [6]; untreated 2-3 ml) was 0 to 1 mL, the “Serum concentrations of IL-10” value (IL-10; FIG. 14(A)) was “unaffected” and the “IL-10 concentrations in the liver and spleen” value (IL-10; FIG. 14(B) and 14(C)) was “elevated”. For the same molecule, the “Serum IL-6” value (IL-6) was 5525 ± 1435 pg/mL, the “Serum TNF-α” value (TNF-α [7]) was 20.3 ± 14.8 pg/mL and the “Mortality in SIRS model” value (SIRS rats) was “effective in reducing mortality”. The “Septic rats surviving to day 3” value (septic rats [8]) was 4 of the 5 and 4 of 5, the “Blood pressures or heart rates versus saline-treated septic rats” value (septic rats [9]) was “neither the groups treated with pentostatin nor the groups treated with 8-SPT were blood pressures or heart rates significantly different” and the “Jejunum tissue TBARS during sepsis” value [10] was “diminution of tissue TBARS”.
